Test results published in BigSolDB 2.1.

c1ccc2c(c1)ccc1ccccc12
solubility (mole fraction)
Conditions | 293 K | 303 K | 313 K | 323 K
in 2,2,4-trimethylpentane | 0.019 | 0.036 | 0.0874 | 0.138
in n-heptane | 0.0154 | 0.0247 | 0.036 | 0.0519
in toluene | 0.461 | 0.499 | 0.577 | 0.604
